For 16 compounds, Ki results are on record in US7378397B2 (The Provost, Fellows and Scholars of the College of the …, priority 2000, dated 2008).

Where a SMILES comes first, the peptide text is derived from it. [ ]: non-standard residue; d: D form. The star is where a group is joined. AMC = Cc1cc(=O)oc2cc(N*)ccc12; pGlu = O=C1CC[C@@H](C(=O)O)N1; NHBn = c1ccc(CN*)cc1

One experiment deals with T1, TRH-DE (Sus scrofa, UniProt A0A287AP33).
T1 construct: The inventor purified TRH-DE from porcine brain according to purification procedures previously published by Dr. K. Bauer; from tissue; host or cells: porcine brain (TRH-DE); bovine kidney (DPP-IV, gift from Dr. C. H. Williams)
T1 sequence (A0A287AP33 1-1066): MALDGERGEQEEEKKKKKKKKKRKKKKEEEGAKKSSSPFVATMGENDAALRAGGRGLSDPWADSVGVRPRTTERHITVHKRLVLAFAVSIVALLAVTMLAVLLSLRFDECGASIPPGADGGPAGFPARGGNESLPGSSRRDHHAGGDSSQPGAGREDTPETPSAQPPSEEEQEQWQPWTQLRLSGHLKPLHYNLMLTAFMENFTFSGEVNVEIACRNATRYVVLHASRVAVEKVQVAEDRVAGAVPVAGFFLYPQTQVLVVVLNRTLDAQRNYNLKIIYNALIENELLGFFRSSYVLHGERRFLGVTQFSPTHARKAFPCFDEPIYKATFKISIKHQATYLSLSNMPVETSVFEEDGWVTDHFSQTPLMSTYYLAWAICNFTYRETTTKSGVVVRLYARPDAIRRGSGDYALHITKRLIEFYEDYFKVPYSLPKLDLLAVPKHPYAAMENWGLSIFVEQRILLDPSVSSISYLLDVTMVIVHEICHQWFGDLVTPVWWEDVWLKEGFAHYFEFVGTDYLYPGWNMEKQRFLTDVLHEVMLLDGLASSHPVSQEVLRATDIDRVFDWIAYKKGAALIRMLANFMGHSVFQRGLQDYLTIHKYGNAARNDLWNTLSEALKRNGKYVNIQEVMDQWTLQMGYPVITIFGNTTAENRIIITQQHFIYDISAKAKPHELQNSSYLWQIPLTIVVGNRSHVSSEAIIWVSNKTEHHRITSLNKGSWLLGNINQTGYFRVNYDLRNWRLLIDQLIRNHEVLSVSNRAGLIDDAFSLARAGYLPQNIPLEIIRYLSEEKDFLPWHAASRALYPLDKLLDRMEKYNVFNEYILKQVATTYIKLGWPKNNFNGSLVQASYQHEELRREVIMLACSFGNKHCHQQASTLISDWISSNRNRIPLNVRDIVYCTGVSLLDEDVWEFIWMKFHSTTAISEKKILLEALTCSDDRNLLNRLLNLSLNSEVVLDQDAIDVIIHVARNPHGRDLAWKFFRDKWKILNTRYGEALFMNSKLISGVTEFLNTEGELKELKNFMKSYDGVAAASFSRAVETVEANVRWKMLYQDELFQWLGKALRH
The experiment can be described thus: continuous coupled fluorometric TRH-DE assay (TRHAMC substrate, DPP-IV coupling enzyme). Format: biochemical, porcine. The conditions noted are these: calculated from percent inhibition measured in duplicate at 5 μM substrate. The protocol: The inventor purified TRH-DE from porcine brain according to purification procedures previously published by Dr. K. Bauer, (Max-Planck-Institut, Hannover, Germany) (1). TRH-DE was purified almost 20,000 fold. […] Dipeptidyl peptidase IV (DPP-IV) (EC 3.4.14.5), purified from bovine kidney (7.7 mg ml^−1, specific activity of 17.5 U mg^−1 with Gly-ProAMC as substrate), was obtained as a gilt from Dr. C. H. Williams (Queen's University Belfast, U.K). (DPP-IV was used as the coupling enzyme used in the fluorometric assays).
One unit (U) of enzyme activity was defined as that amount catalysing the formation of one μmol of product in one minute under the standard conditions employed. All incubations in the assays described below were carried out in 20 mM potassium phosphate buffer, pH 7.5, at 37° C.
Kinetic analysis of peptides that are not hydrolysed by TRH-DE. A recently-developed continuous coupled fluorometric assay (23) was used to investigate the ability of those library peptides that were not hydrolysed by TRH-DE to inhibit TRHAMC degradation by TRH-DE. In this assay, TRHAMC is the substrate and dipeptidyl peptidase IV (DPP-IV) (EC 3.4.14.5) is the coupling enzyme. The reaction sequence is:
The reaction was monitored continuously by measuring the increase in AMC fluorescence. A linear progress curve with no discernible lag period was observed when the reaction was monitored over a period of 10 minutes. Nevertheless, data sampling was not commenced until 100 s from the start of the reaction to ensure measurements were taken after a steady state had been reached (see Ref. 23).
In a preliminary experiment, the peptides were screened for their ability to inhibit TRH-DE activity. The initial rate of TRHAMC hydrolysis by TRH-DE was measured by incubating 5 μM TRHAMC with 1.23 μg DPP-IV and 0.32 μg TRH-DE, both in the absence and presence of each library peptide (1 mM final concentration) under standard assay conditions (23). In each case the percentage inhibition (i%) was calculated using the equation i%=100(1-vi/vo), where vi and vo are the initial velocities in the presence and absence of peptide, respectively.
Since these peptides were poor inhibitors they were not examined further. The Ki values for the remainder of the peptides were determined by measuring their effects on TRHAMC degradation by TRH-DE using the continuous assay. Data were collected in duplicate at five different substrate concentrations and at least three different concentrations of each peptide.
Reversibility and time dependence of the inhibition produced by Glp-Gln-ProNH2, Glp-Asn-ProNH2 and Glp-Asn-ProAMC were examined by initially preincubating TRH-DE with each peptide at 37° C. for various periods up to 75 min. To investigate time dependence, the enzyme-peptide solution was subsequently added to the reaction mixture containing TRHAMC, DPP-IV, buffer and peptide, and TRH-DE activity was measured using the continuous assay. The final concentration of Glp-Gln-ProNH2, Glp-Asn-ProNH2 and Glp-Asn-ProAMC used was 400, 160 and 1 μM, respectively. […] TRH-DE activity was not affected by pre-incubation at 37° C.
Fluorescence measurements were made using a Perkin Elmer LS 50B Luminescence Spectrometer fitted with a thernostated cell holder. Wavelengths for excitation and emission were set at 370 nm and 440 nm, respectively, with slit widths of 10 nm and 5 nm, respectively.
For the compound `COc1ccc(Cl)cc1NC(=O)[C@@H]1CCCN1C(=O)[C@H](CC(N)=O)NC(=O)[C@@H]1CCC(=O)N1` [5-chloro-2-methoxy anilide], the Ki was 9.95 µM.

For `NC(=O)C[C@H](NC(=O)[C@@H]1CCC(=O)N1)C(=O)N1CCC[C@H]1C(=O)NC1CCCc2ccccc21` (single isomer, unassigned), the Ki is 63.2 µM.

With `COc1ccc(NC(=O)[C@@H]2CCCN2C(=O)[C@H](CC(N)=O)NC(=O)[C@@H]2CCC(=O)N2)cc1` [p-anisidide], the Ki is 3.24 µM.

As to `NC(=O)C[C@H](NC(=O)[C@@H]1CCC(=O)N1)C(=O)N1CCC[C@H]1C(=O)NC1CCCc2ccccc21` (single isomer, unassigned) [1,2,3,4-tetrahydro-1-naphthylamide isomer 2], the Ki is 22.4 µM.

Consider `NC(=O)C[C@H](NC(=O)[C@@H]1CCC(=O)N1)C(=O)N1CCC[C@H]1C(=O)NCc1ccccc1` [Benzylamide] ([pGlu]-Asn-Pro-NHBn), for which the Ki was 11.9 µM.

For `COc1ccccc1NC(=O)[C@@H]1CCCN1C(=O)[C@H](CC(N)=O)NC(=O)[C@@H]1CCC(=O)N1` [o-anisidide], the Ki is 11.6 µM.

`NC(=O)C[C@H](NC(=O)[C@@H]1CCC(=O)N1)C(=O)N1CCC[C@H]1C(=O)Nc1cccc2c1CCCC2`: the Ki is 9.31 µM.

Take `NC(=O)C[C@H](NC(=O)[C@@H]1CCC(=O)N1)C(=O)N1CCC[C@H]1C(=O)Nc1ccccc1O`: the Ki was 6.62 µM.

Consider `COc1cccc(NC(=O)[C@@H]2CCCN2C(=O)[C@H](CC(N)=O)NC(=O)[C@@H]2CCC(=O)N2)c1` [m-anisidide], for which the Ki was 0.86 µM.

The same experiment, now with this note: from the percent inhibition (n = 3) in the presence of 5 μM substrate.
Turning to `NC(=O)C[C@H](NC(=O)[C@@H]1CCC(=O)N1)C(=O)N1CCC[C@H]1C(=O)N[C@@H](Cc1ccc(O)cc1)C(N)=O` [Glp-Asn-Pro-Tyr-NH2] ([pGlu]NPY-NH2), the Ki is 10.3 µM.

`NC(=O)C[C@H](NC(=O)[C@@H]1CCC(=O)N1)C(=O)N1CCC[C@H]1C(=O)N[C@@H](Cc1c[nH]c2ccccc12)C(=O)N[C@@H](CO)C(=O)N[C@@H](Cc1ccc(O)cc1)C(N)=O` [Glp-Asn-Pro-Trp-Ser-Tyr-NH2] ([pGlu]NPWSY-NH2): the Ki turned out to be 8.11 µM.

In the case of `NC(=O)C[C@H](NC(=O)[C@@H]1CCC(=O)N1)C(=O)N1CCC[C@H]1C(=O)N[C@@H](Cc1c[nH]c2ccccc12)C(=O)N[C@@H](Cc1ccc(O)cc1)C(N)=O` [Glp-Asn-Pro-Trp-Tyr-NH2] ([pGlu]NPWY-NH2), the Ki was determined as 5.91 µM.

Regarding `NC(=O)C[C@H](NC(=O)[C@@H]1CCC(=O)N1)C(=O)N1CCC[C@H]1C(=O)N[C@@H](Cc1ccc(O)cc1)C(=O)N[C@@H](Cc1c[nH]c2ccccc12)C(N)=O` [Glp-Asn-Pro-Tyr-Trp-NH2] ([pGlu]NPYW-NH2), the Ki worked out at 0.78 µM.

With `NC(=O)C[C@H](NC(=O)[C@@H]1CCC(=O)N1)C(=O)N1CCC[C@H]1C(=O)N[C@@H](Cc1c[nH]c2ccccc12)C(N)=O` [Glp-Asn-Pro-Trp-NH2] ([pGlu]NPW-NH2), the Ki was found to be 5.17 µM.

`Cc1cc(=O)oc2cc(NC(=O)[C@H](Cc3c[nH]c4ccccc34)NC(=O)[C@@H]3CCCN3C(=O)[C@H](CC(N)=O)NC(=O)[C@@H]3CCC(=O)N3)ccc12` [Glp-Asn-Pro-Trp-AMC] ([pGlu]NPW-{AMC}): the Ki was 0.08 µM.

The same experiment, now with this note: non-linear regression, five TRHAMC concentrations and at least three peptide concentrations; mean±S.D. (n=3).
`Cc1cc(=O)oc2cc(NC(=O)[C@H](Cc3c[nH]c4ccccc34)NC(=O)[C@H](Cc3ccc(O)cc3)NC(=O)[C@@H]3CCCN3C(=O)[C@H](CC(N)=O)NC(=O)[C@@H]3CCC(=O)N3)ccc12` [Glp-Asn-Pro-Tyr-Trp-AMC] ([pGlu]NPYW-{AMC}) registered a Ki of 0.04 µM.

As a reminder, the Ki is a dissociation constant, usually derived from enzyme kinetics or from competition with a known ligand.
